Holding throughout (assay type): in vivo
Test [1] has as its system ryegrass, Italian (Italian ryegrass, Lolium multiflorum). Briefly: Test A preemergence. Particulars: Lolium multiflorum, pre-emergence, 240 h, 0 to 100 scale (0 no effect, 100 complete control), read-out: Plant response rating, Ryegrass, Italian; for pest or weed control at 125 g/ha: Preemergence, 125 g ai/ha. In outline: (§1)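 Compounds were formulated in a non-phytotoxic solvent mixture with surfactant and applied as a preemergence directed soil spray after seeding, or sprayed postemergence over plants 2 to 10 cm tall at the one- to two-leaf stage. Evaluation after about 10 d compared treated with untreated controls, using a scale from 0 (no effect) to 100 (complete control).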

The test system of test [2] is pigweed (Amaranthus retroflexus). Kind of test: Test A preemergence. Particulars: Amaranthus retroflexus, pre-emergence, 240 h; for pest or weed control at 500 g/ha: 500 g ai/ha, preemergence; for pest or weed control at 125 g/ha: Preemergence, 125 g ai/ha.
The test system of test [3] is ragweed (common ragweed, Ambrosia elatior). Briefly: Test A preemergence. Particulars: Ambrosia artemisiifolia, pre-emergence, 240 h; for pest or weed control at 500 g/ha: 500 g ai/ha, preemergence; for pest or weed control at 125 g/ha: Preemergence, 125 g ai/ha. In outline:
as §1

Another test deals with Kochia (Kochia scoparia). Briefly: Test A preemergence. Particulars: Bassia scoparia, pre-emergence, 240 h; for pest or weed control at 500 g/ha: 500 g ai/ha, preemergence; for pest or weed control at 125 g/ha: Preemergence, 125 g ai/ha. In short, it runs like this:
as §1

Test [4] concerns giant foxtail (Setaria faberii). Kind of test: Test A preemergence. Particulars: Setaria faberi, pre-emergence, 240 h; for pest or weed control at 500 g/ha: 500 g ai/ha, preemergence; for pest or weed control at 125 g/ha: Preemergence, 125 g ai/ha. In short, it runs like this:
as §1

The subject of test [5] is barnyardgrass (Echinochloa crus-galli). Kind of test: Test A preemergence. Particulars: Echinochloa crus-galli, pre-emergence, 240 h; for pest or weed control at 500 g/ha: 500 g ai/ha, preemergence; for pest or weed control at 125 g/ha: Preemergence, 125 g ai/ha. In short, it runs like this:
as §1

Test [6] deals with ducksalad (Heteranthera limosa). Kind of test: Test B flooded paddy test. Particulars: Heteranthera limosa, Flood, 250 g ai/ha. In short, it runs like this: (§2)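 2-leaf plants; pots flooded 3 cm over soil; cpd added to paddy water; depth held; greenhouse 13–15 d; visual rating vs controls, 0 = no effect, 100 = complete control.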
Test [7] deals with sedge, umbrella (small-flower umbrella sedge, Cyperus difformis). Briefly: Test B flooded paddy test. Particulars: Cyperus difformis, 360 h, Flood, 250 g ai/ha; visually evaluated after 13 to 15 d; read-out: Plant response rating, Sedge, Umbrella (0 to 100 scale where 0 is no effect and 100 is complete control). In short, it runs like this:
as §2

In test [8] the test system is barnyardgrass (Echinochloa crus-galli). Briefly: Test B flooded paddy test. Particulars: Echinochloa crus-galli, Flood, 250 g ai/ha. In outline: as §2
For another test, the system named is rice (Oryra sativa). Kind of test: Test B flooded paddy test. Particulars: Oryza sativa, Flood, 250 g ai/ha. In outline:
as §2

Test [9] deals with ryegrass, Italian (Italian ryegrass, Lolium multiflorum). Briefly: Test A postemergence. Particulars: Lolium multiflorum, post-emergence, 240 h, Postemergence; for pest or weed control at 125 g/ha: 125 g ai/ha, visual rating about 10 d after treatment, read-out: Ryegrass, Italian plant response rating (0 to 100 scale); for pest or weed control at 500 g/ha: 500 g ai/ha, visual injury, 0 to 100 scale (0 no effect, 100 complete control), approx. 10 d, read-out: Plant response rating, Ryegrass, Italian. In short, it runs like this:
as §1

In test [10] the test system is pigweed (Amaranthus retroflexus). Kind of test: Test A postemergence. Particulars: Amaranthus retroflexus, post-emergence, 240 h, Postemergence; for pest or weed control at 125 g/ha: 125 g ai/ha, visual rating about 10 d after treatment, read-out: Pigweed plant response rating (0 to 100 scale); for pest or weed control at 500 g/ha: 500 g ai/ha, visual injury, 0 to 100 scale (0 no effect, 100 complete control), approx. 10 d, read-out: Plant response rating, Pigweed. In short, it runs like this:
as §1

In test [11] the test system is giant foxtail (Setaria faberii). Kind of test: Test A postemergence. Particulars: Setaria faberi, post-emergence, 240 h, Postemergence; for pest or weed control at 125 g/ha: 125 g ai/ha, visual rating about 10 d after treatment, read-out: Foxtail, Giant plant response rating (0 to 100 scale); for pest or weed control at 500 g/ha: 500 g ai/ha, visual injury, 0 to 100 scale (0 no effect, 100 complete control), approx. 10 d, read-out: Plant response rating, Foxtail, Giant. In outline: as §1

For test [12], the system named is barnyardgrass (Echinochloa crus-galli). Kind of test: Test A postemergence. Particulars: Echinochloa crus-galli, post-emergence, 240 h, Postemergence; for pest or weed control at 125 g/ha: 125 g ai/ha, visual rating about 10 d after treatment, read-out: Barnyardgrass plant response rating (0 to 100 scale, 0 no effect, 100 complete control); for pest or weed control at 500 g/ha: 500 g ai/ha, visual injury, 0 to 100 scale (0 no effect, 100 complete control), approx. 10 d, read-out: Plant response rating, Barnyardgrass. In short, it runs like this:
as §1

Where [13] appears, read: 0 to 100 scale (0 no effect, 100 complete control), read-out: Plant response rating, Pigweed.
Where [14] appears, read: 0 to 100 scale (0 no effect, 100 complete control), read-out: Plant response rating, Ragweed.
[15] abbreviates: 0 to 100 scale (0 no effect, 100 complete control), read-out: Plant response rating, Kochia.
Setting [16] is: 0 to 100 scale (0 no effect, 100 complete control), read-out: Plant response rating, Foxtail, Giant.
Where [17] appears, read: 0 to 100 scale (0 no effect, 100 complete control), read-out: Plant response rating, Barnyardgrass.
Where [18] appears, read: 0 to 100 scale where 0 is no effect and 100 is complete control, read-out: Barnyardgrass plant response rating.

Experimental findings from patent publication US12077503B2, “Substituted cyclic amides and their use as herbicides” (FMC CORPORATION, priority 2015, dated 2024) are described below.

Read-outs that look alike come from different tables or passages of the source.

For the compound `Cc1c(F)ccc([C@H]2CNC(=O)[C@@H]2C(=O)Nc2ccc(F)cc2F)c1F` [Compound 1328], the pest or weed control at 500 g/ha in test [1] (500 g ai/ha, preemergence) turned out to be 30%; in test [2] (setting [13]), 0%; in [3] (setting [14]), 0%; with Kochia (Kochia scoparia) (setting [15]), 50%; in [4] (setting [16]) it was 90%; in test [5] (setting [17]) it was 90%. Further, the pest or weed control at 500 g/ha in [9] is 30%; in test [10] it was 0%; in [11], 40%; in test [12], 90%. In addition, the pest or weed control at 125 g/ha in test [1] is 0%; in [2] (setting [13]), 0%; in [3] (setting [14]) it was 0%; with Kochia (Kochia scoparia) (setting [15]) it was 30%; in test [4] (setting [16]), 50%; in test [5] (setting [17]), 70%. In addition, the pest or weed control at 125 g/ha is 0% in test [9], 0% in test [10], 0% in [11] and 60% in test [12]. In addition, the pest or weed control at 250 g/ha in test [6] (360 h, visually evaluated after 13 to 15 d, read-out: Plant response rating, Ducksalad (0 to 100 scale where 0 is no effect and 100 is complete control)) came out at 50%; in [7] it was 0%; in [8] (360 h, visually evaluated after 13 to 15 d, read-out: Plant response rating, Barnyardgrass (0 to 100 scale where 0 is no effect and 100 is complete control)) it was 0%; in the test on rice (Oryra sativa) (360 h, visually evaluated after 13 to 15 d, read-out: Plant response rating, Rice (0 to 100 scale where 0 is no effect and 100 is complete control)), 0%.

With `CS(=O)(=O)c1ccccc1NC(=O)[C@H]1C(=O)NC[C@@H]1c1ccc2c(c1)CCO2` [Compound 1320], the pest or weed control at 125 g/ha (in test [1]; in test [2] (setting [13]); in test [3] (setting [14]); in the test with Kochia (Kochia scoparia) (setting [15]); in test [4] (setting [16]); in [5] (setting [17])) was 0% in each case. Also, the pest or weed control at 125 g/ha in test [9], in test [10], in [11] and in test [12] was 0% in each case. Further, the pest or weed control at 500 g/ha turned out to be 0% in test [2] (0 to 100 scale where 0 is no effect and 100 is complete control, read-out: Pigweed plant response rating); 0% in test [3] (0 to 100 scale where 0 is no effect and 100 is complete control, read-out: Ragweed plant response rating); 60% in the test on Kochia (Kochia scoparia) (0 to 100 scale where 0 is no effect and 100 is complete control, read-out: Kochia plant response rating); 80% in test [4] (0 to 100 scale where 0 is no effect and 100 is complete control, read-out: Foxtail, Giant plant response rating); 60% in test [5] (setting [18]); 0% in test [9]. The pest or weed control at 500 g/ha in [10] turned out to be 0%; in test [11] it was 20%; in [12], 50%. The pest or weed control at 250 g/ha in test [6] (0 to 100 scale where 0 is no effect and 100 is complete control, read-out: Ducksalad plant response rating) came to 50%; in [7], 0%; in [8] (setting [18]), 0%; with rice (Oryra sativa) (0 to 100 scale where 0 is no effect and 100 is complete control, read-out: Rice plant response rating), 0%.
